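Dose response: 5 concentrations. Exposure: 48 h. Format: 96-well plates. Endpoint: linear interpolation; highest concentration if not reached. At the GI50, growth is halved.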 The source made the active and inactive calls. No stated cut-off is given here; in the data, active = GI50 up to about 1.1 µM and inactive = higher.
Assays:
Assay in all cases: growth of human tumour cells (NCI), 48 h
HOP-18 = system: HOP-18
LXFL 529 = system: LXFL 529
RXF 631 = system: RXF 631
DMS-273 = system: DMS-273
SNB-78 = system: SNB-78
XF498 = system: XF498
DMS-114 = system: DMS-114
M19-MEL = system: M19-MEL
DLD-1 = system: DLD-1

Measured: GI50

CCOC(=O)/C(Br)=C1/OC(=O)c2ccccc2-c2ccccc21.CCOC(=O)/C(Br)=C1\OC(=O)c2ccccc2-c2ccccc21
inactive: HOP-18 22 µM | LXFL 529 13.6 µM | RXF 631 21.9 µM | DMS-273 14.7 µM | SNB-78 20.6 µM | XF498 18.5 µM | DMS-114 15.4 µM | M19-MEL 15.8 µM | DLD-1 17.9 µM

CCOC(=O)/N=C(\N)SCc1ccccc1
inactive: HOP-18 > 100 µM | LXFL 529 > 100 µM | RXF 631 > 100 µM | DMS-273 > 100 µM | SNB-78 > 100 µM | XF498 > 100 µM | DMS-114 > 100 µM | M19-MEL > 100 µM | DLD-1 > 100 µM

— ChEMBL document CHEMBL1201862, “PubChem BioAssay data set” (2004)
